Test results published in ChEMBL document CHEMBL1143317, “Efficient synthesis and biological evaluation of 1,2,9-trisubstituted 1,9-dihydro-6H-purin-6-ones” (Bioorg Med Chem Lett, 2009).

What was measured:
Assay type in all cases: functional, cell-based
KB = test: Cytotoxicity against human KB cells after 72 hrs by MTT assay
HepG2 = test: Cytotoxicity against human HepG2 cells after 72 hrs by MTT assay; settings: HepG2, 72 h
OVCAR-3 = test: Cytotoxicity against human OVCAR-3 cells after 72 hrs by MTT assay; settings: OVCAR-3, 72 h

Structure (SMILES) | IC50 (KB) [µM] | IC50 (HepG2) [µM] | IC50 (OVCAR-3) [µM]
CCCCN(CCCC)c1nc2c(ncn2-c2ccccc2)c(=O)n1-c1ccccc1 | 9.5 | 20.4 | 10
O=c1c2ncn(-c3ccccc3)c2nc(N2CCCCC2)n1-c1ccc(Cl)cc1 | 72.8 | > 100 | > 100
CNc1nc2c(ncn2-c2ccccc2)c(=O)n1-c1ccccc1 | > 100 | > 100 | > 100
CN(C)c1nc2c(ncn2-c2ccccc2)c(=O)n1-c1ccccc1 | 83.8 | > 100 | > 100
CCNc1nc2c(ncn2-c2ccccc2)c(=O)n1-c1ccccc1 | > 100 | > 100 | > 100
CCCCNc1nc2c(ncn2-c2ccccc2)c(=O)n1-c1ccc(Cl)cc1 | 37.7 | 77.6 | 94.8
CCCCCN(CCCCC)c1nc2c(ncn2-c2ccccc2)c(=O)n1-c1ccc(Cl)cc1 | 10.6 | > 100 | > 100
O=c1c2ncn(-c3ccccc3)c2nc(NCc2ccccc2)n1-c1ccc(Cl)cc1 | 34.3 | 62.1 | 46.7
CNc1nc2c(ncn2-c2ccccc2)c(=O)n1-c1ccc(Cl)cc1 | > 100 | > 100 | > 100
CC(C)N(c1nc2c(ncn2-c2ccccc2)c(=O)n1-c1ccccc1)C(C)C | 53.5 | > 100 | > 100
